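Interpolation was linear, between the two tested concentrations surrounding the appropriate level; five concentrations were tested over 48 hours in 96-well plates. At the TGI there is no net growth.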
Assays:
Assay in all cases: inhibition of tumour cell growth, NCI panel, 48 h
M14 melanoma = system: M14 melanoma
HL-60(TB) leukemia = system: HL-60(TB) leukemia
SNB-75 CNS = system: SNB-75 CNS
K-562 leukemia = system: K-562 leukemia
MCF7 breast = system: MCF7 breast
LOX IMVI melanoma = system: LOX IMVI melanoma
SK-MEL-28 melanoma = system: SK-MEL-28 melanoma
OVCAR-3 ovarian = system: OVCAR-3 ovarian
A549 NSCLC = system: A549 NSCLC
OVCAR-5 ovarian = system: OVCAR-5 ovarian
A498 renal = system: A498 renal
OVCAR-8 ovarian = system: OVCAR-8 ovarian
NCI-H460 lung = system: NCI-H460 lung
RPMI-8226 leukemia = system: RPMI-8226 leukemia
UACC-62 melanoma = system: UACC-62 melanoma
HCT-15 colon = system: HCT-15 colon
ACHN renal = system: ACHN renal
NCI-H23 lung = system: NCI-H23 lung
MDA-MB-231 breast = system: MDA-MB-231 breast

Row | SMILES | TGI (M14 melanoma) [µM] | TGI (HL-60(TB) leukemia) [µM] | TGI (SNB-75 CNS) [µM] | TGI (K-562 leukemia) [µM] | TGI (MCF7 breast) [µM] | TGI (LOX IMVI melanoma) [µM] | TGI (SK-MEL-28 melanoma) [µM] | TGI (OVCAR-3 ovarian) [µM] | TGI (A549 NSCLC) [µM] | TGI (OVCAR-5 ovarian) [µM] | TGI (A498 renal) [µM] | TGI (OVCAR-8 ovarian) [µM] | TGI (NCI-H460 lung) [µM] | TGI (RPMI-8226 leukemia) [µM] | TGI (UACC-62 melanoma) [µM] | TGI (HCT-15 colon) [µM] | TGI (ACHN renal) [µM] | TGI (NCI-H23 lung) [µM] | TGI (MDA-MB-231 breast) [µM]
1 | COC(=O)C1(C(=O)OC)N=C(C)OC1c1ccccn1 (centres undefined) | > 100 | > 100 | > 100 | > 100 | > 100 | > 100 | > 100 | > 100 | > 100 | > 100 | > 100 | > 100 | > 100 | > 100 | > 100 | > 100 | > 100 | > 100 | –
2 | COc1cc(C(=O)C2C(=O)c3ccccc3C2C2(O)c3ccccc3CC2C(O)c2cc(OC)c(OC)c(OC)c2)cc(OC)c1OC (centres undefined) | > 100 | – | 94.3 | > 100 | > 100 | > 100 | > 100 | > 100 | > 100 | > 100 | > 100 | > 100 | > 100 | 84.4 | > 100 | > 100 | > 100 | > 100 | > 100
3 | Cc1ccc(Nc2[nH]c(=O)[nH]c(=O)c2C)cc1Cl | > 100 | – | > 100 | > 100 | 59.7 | > 100 | > 100 | > 100 | > 100 | > 100 | > 100 | > 100 | > 100 | > 100 | > 100 | > 100 | > 100 | > 100 | > 100
4 | Cc1[nH]n(C(=N)N)c(=O)c1CCO | > 100 | > 100 | > 100 | > 100 | > 100 | > 100 | > 100 | > 100 | > 100 | > 100 | > 100 | 3.17 | > 100 | – | > 100 | > 100 | > 100 | > 100 | > 100
5 | C[n+]1c2ccccc2n2c3ccccc3c(NCCc3ccccn3)c(C#N)c21 | 6.56 | 7.9 | 5.22 | > 100 | 2.97 | 3.41 | 5.51 | > 25.7 | 50.1 | > 21.7 | 14 | – | 3.61 | – | – | 17.4 | > 20.1 | 11 | 6.83
6 | CCC/C(Cl)=N\OC(=O)Nc1cccc(C(F)(F)F)c1 | 32.7 | – | 24.3 | – | 30.1 | 19.7 | 37.6 | 40.2 | 36.1 | 46.1 | 32 | 32.3 | 35.8 | 25.8 | 55.3 | 18.4 | 29.8 | 41.1 | 33.8
7 | Cc1nc2c(cc1C(=O)N/N=C/c1ccc([N+](=O)[O-])cc1)c(=O)n(C)c(=O)n2C | > 100 | > 100 | > 100 | > 100 | > 100 | – | > 100 | > 100 | > 100 | > 100 | – | > 100 | > 100 | > 100 | > 100 | > 100 | > 100 | > 100 | 65.7
8 | CCCCc1ccc(-n2sc3ncc([N+](=O)[O-])cc3c2=O)cc1 | 43.7 | 38 | 57.2 | – | 40.5 | 26.1 | 50.7 | 46.1 | 27.3 | 40.6 | – | 61 | 25.3 | 32.5 | 21.8 | 28.4 | 28 | 24.1 | 23.5
9 | CC(C)(C)CNC(=O)NCn1cc(-c2ccccc2)nn1 | > 100 | > 100 | – | > 100 | > 100 | > 100 | > 100 | – | > 100 | > 100 | – | > 100 | > 100 | > 100 | – | > 100 | > 100 | > 100 | > 100
10 | COC(=O)[C@@]1(Cc2ccc(O)cc2)C[C@@H]2Cc3ccccc3N2N1 | > 100 | – | – | – | > 100 | > 100 | > 100 | > 100 | > 100 | > 100 | 97.3 | > 100 | – | > 100 | > 100 | > 100 | > 100 | > 100 | > 100

Reference: PubChem BioAssay (NCI)
